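Test compounds were applied to cells in 96-well plates for 48 hours at 5 doses. Abbreviation: GI50, concentration required for 50% inhibition of growth.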 Calls of active or inactive are those of the source. Cut-off read from the data, not from the text of the source: active = GI50 up to about 1.1 µM and inactive = higher. Where only a bound is given, the exact number is not on record here.

Among the test systems are KM12; RXF 393; NCI-H460; A549; HOP-62; HCT-116; OVCAR-4; HCT-15; SK-MEL-2; RPMI-8226; U-251; A498; HOP-92; SK-MEL-28; MOLT-4; NCI-H522; ACHN; OVCAR-8; K562; HCC 2998.
Test in all cases: NCI-60 cell line screen, 48 h

In the case of `NNc1nncn1N`, the GI50 in the assay with KM12, in the assay on RXF 393, in the assay on NCI-H460, with A549, in the assay on HOP-62 and in the assay with HCT-116 was > 100 µM (inactive) in each case. Also, the GI50 is 38.1 µM (inactive) with OVCAR-4; above 100 µM in the assay with HCT-15; > 100 µM (inactive) with SK-MEL-2; 72.1 µM (inactive) in the assay on RPMI-8226; > 100 µM (inactive) in the assay on U-251; > 100 µM (inactive) with A498. Besides, the GI50 with HOP-92 is > 100 µM (inactive); in the assay on SK-MEL-28, > 100 µM (inactive); in the assay on MOLT-4, > 62.4 µM (inactive); in the assay with NCI-H522, > 93.1 µM (inactive); in the assay with ACHN it was > 100 µM (inactive); with OVCAR-8 it was > 96.6 µM (inactive). The GI50 with K562 was > 76 µM (inactive).
For the compound `O=c1c2ccc3cccc4c(=O)cc(c5ccccc15)-c2c34`, the GI50 in the assay with KM12, with RXF 393, in the assay on NCI-H460, in the assay on A549, with HOP-62 and in the assay with HCT-116 was > 100 µM (inactive) in each case. Also, the GI50 with OVCAR-4 is > 100 µM (inactive); in the assay with HCT-15 it was above 100 µM; in the assay on SK-MEL-2, 22 µM (inactive); in the assay on U-251, 45.4 µM (inactive); in the assay with A498, > 100 µM (inactive); in the assay on SK-MEL-28 it was > 100 µM (inactive). The GI50 in the assay with MOLT-4 is 59.2 µM (inactive); with NCI-H522, 76.9 µM (inactive); in the assay with HCC 2998, > 100 µM (inactive); with ACHN, > 100 µM (inactive); with OVCAR-8, 28.6 µM (inactive); in the assay on K562, 54.5 µM (inactive).
As to `Cc1ccc(C)c(N2C/C(=N\NC(=O)CC#N)C(c3nc4ccccc4s3)C(=O)C2=O)c1` (centres undefined), the GI50 in the assay with KM12, in the assay with RXF 393, with NCI-H460, in the assay on A549, with HOP-62 and in the assay with HCT-116 was > 100 µM (inactive) in each case. Moreover, the GI50 in the assay on OVCAR-4 was > 100 µM (inactive); in the assay with HCT-15 it was above 100 µM; in the assay on SK-MEL-2 it was > 100 µM (inactive); in the assay on U-251 it was > 100 µM (inactive); in the assay with A498, > 100 µM (inactive); in the assay on HOP-92 it was > 100 µM (inactive). In addition, the GI50 in the assay on SK-MEL-28, with MOLT-4, in the assay on NCI-H522, in the assay with HCC 2998, in the assay with ACHN and with OVCAR-8 was > 100 µM (inactive) each time.
With `COC(=O)C([C@H]1CC[C@H](OCc2ccccc2)[C@@]1(O)COCc1ccccc1)C(C)(O)CCc1ccccc1` (some centres undefined), the GI50 in the assay with KM12 was 3.32 µM (inactive); in the assay with RXF 393, 10.4 µM (inactive); in the assay on A549 it was 6.71 µM (inactive); with HOP-62, 15.2 µM (inactive); with HCT-116, 10.7 µM (inactive); in the assay on OVCAR-4, 17.1 µM (inactive). The GI50 was 13.5 µM in the assay with HCT-15; 12.2 µM (inactive) in the assay with SK-MEL-2; 9.89 µM (inactive) with RPMI-8226; 11.6 µM (inactive) in the assay with U-251; 15 µM (inactive) in the assay with A498; 15.3 µM (inactive) in the assay with SK-MEL-28. Besides, the GI50 is 3.63 µM (inactive) in the assay on MOLT-4; 8.07 µM (inactive) in the assay on NCI-H522; 14 µM (inactive) in the assay with HCC 2998; 12.5 µM (inactive) in the assay with ACHN; 13.4 µM (inactive) with OVCAR-8; 8.15 µM (inactive) in the assay on K562.
Turning to `CCCCCC1CC=CC(=O)O1` (centres undefined), the GI50 in the assay on KM12 was 4.39 µM (inactive); in the assay with RXF 393, 4.49 µM (inactive); with NCI-H460, 11 µM (inactive); in the assay with A549, 6.81 µM (inactive); in the assay with HOP-62 it was 4.36 µM (inactive); in the assay on HCT-116 it was 2.04 µM (inactive). The GI50 with OVCAR-4 was 1.18 µM (inactive); in the assay on HCT-15, 5.07 µM; in the assay with SK-MEL-2, 6.84 µM (inactive); in the assay with RPMI-8226 it was 1.91 µM (inactive); in the assay with U-251, 3.56 µM (inactive); with A498 it was 26.1 µM (inactive). Moreover, the GI50 with HOP-92 was 1.2 µM (inactive); with SK-MEL-28, 4.51 µM (inactive); in the assay on MOLT-4, 2.25 µM (inactive); in the assay on NCI-H522, 2.92 µM (inactive); in the assay with ACHN, 7.62 µM (inactive); in the assay on OVCAR-8, 5.97 µM (inactive). The GI50 with K562 was 5.4 µM (inactive).
Take `CN/C=C(\C(=O)c1ccc(OC)c(OC)c1)c1ccc(OC)cc1`: the GI50 in the assay with KM12 was 12.6 µM (inactive); with RXF 393, 14 µM (inactive); in the assay on NCI-H460, 19.2 µM (inactive); in the assay with A549, 34.6 µM (inactive); in the assay on HOP-62 it was 24.7 µM (inactive); with HCT-116, 4.06 µM (inactive). The GI50 with OVCAR-4 was 24.5 µM (inactive); with HCT-15, 13.1 µM; with SK-MEL-2, 15.7 µM (inactive); with RPMI-8226, 3.52 µM (inactive); in the assay on U-251 it was 9.29 µM (inactive); in the assay with A498, 13.3 µM (inactive). Besides, the GI50 is 19.5 µM (inactive) in the assay with SK-MEL-28; 19.9 µM (inactive) with MOLT-4; 17 µM (inactive) with NCI-H522; > 10 µM (inactive) in the assay with HCC 2998; 22 µM (inactive) in the assay on ACHN; 15 µM (inactive) in the assay with OVCAR-8. Moreover, the GI50 in the assay with K562 was 6.43 µM (inactive).
On to `O=C(N/N=C1/C(=O)c2c3ccccc3cc3cccc1c23)c1ccccc1`, for which the GI50 was 16.7 µM (inactive) in the assay with KM12; 22.1 µM (inactive) with RXF 393; 16.9 µM (inactive) in the assay on NCI-H460; 12.2 µM (inactive) in the assay with A549; 19.5 µM (inactive) with HOP-62; 30.8 µM (inactive) with HCT-116. In addition, the GI50 with OVCAR-4 is 20.8 µM (inactive); in the assay with HCT-15 it was 49.1 µM; with SK-MEL-2 it was 33.2 µM (inactive); in the assay with RPMI-8226, > 80.4 µM (inactive); in the assay on U-251, 31.6 µM (inactive); in the assay with A498 it was 22.1 µM (inactive). For the same compound, the GI50 with HOP-92 was 51.9 µM (inactive); in the assay with SK-MEL-28 it was > 54.8 µM (inactive); with MOLT-4, > 62.7 µM (inactive); in the assay on NCI-H522, 32.7 µM (inactive); in the assay on ACHN, 29.1 µM (inactive); in the assay on OVCAR-8 it was 31.1 µM (inactive). The GI50 in the assay on K562 was > 59.6 µM (inactive).
For the compound `O=c1[nH]c2ccc(O)cc2o1`, the GI50 in the assay on KM12 is > 100 µM (inactive); in the assay with RXF 393, 2.49 µM (inactive); with NCI-H460, > 100 µM (inactive); in the assay on A549 it was > 100 µM (inactive); in the assay with HOP-62, > 100 µM (inactive); in the assay with HCT-116, > 100 µM (inactive). Besides, the GI50 in the assay on OVCAR-4 was > 100 µM (inactive); in the assay with HCT-15, above 100 µM; in the assay with U-251 it was > 100 µM (inactive); in the assay on A498, > 100 µM (inactive); in the assay with SK-MEL-28 it was > 100 µM (inactive); in the assay on MOLT-4, > 100 µM (inactive). The GI50 in the assay on NCI-H522 was > 100 µM (inactive); in the assay on HCC 2998 it was 2.56 µM (inactive); with ACHN, > 100 µM (inactive); in the assay with OVCAR-8, > 100 µM (inactive); in the assay on K562, > 100 µM (inactive).
In the case of `Fc1cccc2nc(-c3ccccc3)cc(OCc3ccccc3)c12`, the GI50 in the assay on KM12 is > 100 µM (inactive); with RXF 393, 69.5 µM (inactive); with NCI-H460, > 100 µM (inactive); in the assay with A549 it was 83.4 µM (inactive); in the assay on HOP-62 it was > 100 µM (inactive); with HCT-116, > 100 µM (inactive). Further, the GI50 with OVCAR-4 is > 100 µM (inactive); in the assay with HCT-15, above 100 µM; in the assay on SK-MEL-2, > 100 µM (inactive); in the assay on RPMI-8226, > 100 µM (inactive); with U-251, > 100 µM (inactive); in the assay on A498 it was > 100 µM (inactive). Further, the GI50 is > 100 µM (inactive) in the assay with SK-MEL-28; > 100 µM (inactive) in the assay with MOLT-4; 71.8 µM (inactive) in the assay with NCI-H522; > 100 µM (inactive) in the assay with HCC 2998; > 100 µM (inactive) in the assay with ACHN; > 100 µM (inactive) with OVCAR-8. Besides, the GI50 with K562 is > 100 µM (inactive).
On to `COC(CN(C)C(=S)Nc1cccc2ccccc12)OC`, for which the GI50 with KM12, in the assay with RXF 393, in the assay with NCI-H460, in the assay on A549, in the assay on HOP-62 and with HCT-116 was > 10 µM (inactive) each time. In addition, the GI50 in the assay on OVCAR-4 was > 10 µM (inactive); in the assay on HCT-15, above 10 µM; in the assay with SK-MEL-2, > 10 µM (inactive); in the assay on RPMI-8226, > 10 µM (inactive); with U-251 it was > 10 µM (inactive); in the assay on A498, > 10 µM (inactive). The GI50 with SK-MEL-28, in the assay on MOLT-4, in the assay on NCI-H522, in the assay on HCC 2998, in the assay with ACHN and in the assay on OVCAR-8 was > 10 µM (inactive) each time. Moreover, the GI50 in the assay with K562 is > 10 µM (inactive).
Take `CC(=O)Oc1ccccc1` [ACETIC ACID PHENYL ESTER]: the GI50 in the assay on KM12, in the assay with RXF 393, in the assay with NCI-H460, with A549, with HOP-62 and in the assay with HCT-116 was > 100 µM (inactive) each time. For the same compound, the GI50 in the assay with OVCAR-4 is > 100 µM (inactive); in the assay with HCT-15, above 100 µM; with SK-MEL-2, > 100 µM (inactive); in the assay with RPMI-8226 it was > 100 µM (inactive); in the assay on U-251, > 100 µM (inactive); in the assay on A498, > 100 µM (inactive). For the same compound, the GI50 is > 100 µM (inactive) in the assay on SK-MEL-28; > 100 µM (inactive) in the assay with MOLT-4; > 100 µM (inactive) in the assay with NCI-H522; > 10 µM (inactive) in the assay with HCC 2998; > 100 µM (inactive) with ACHN; > 100 µM (inactive) with OVCAR-8. The GI50 with K562 is > 100 µM (inactive).

The record behind these values is ChEMBL document CHEMBL1201862, “PubChem BioAssay data set” (2004).
